Experimental data as given in patent US20220275376A1, “TARGETING SLC38A2 IN PANCREATIC CANCER” (New York University, priority 2019, published 2022).

Legend:
[1] = tested on: HY19636 cells; test: Intracellular amino acid levels in SLC38A2-deficient HY19636 cells after alanine supplementation; type: cell-based, mouse; settings: SLC38A2-deficient (sgSlc38a2 #1) HY19636 cells, 1 mM, 24 hours
Procedure: (A) Serine, glycine, proline, and glutamate extracellular fluxes in SLC38A2-deficient (sgSLC38A2 #1, #3) and control (sgTom) HY19636, MiaPaCa2, and PANC1 cells cultured in DMEM. Extracellular accumulation (+, secretion) or depletion (−, uptake) was measured in conditioned media over 24 hours and normalized to the viable cell density over the time course. Error bars depict s.d. of three independent experiments. (B) Essential amino acid (leucine, isoleucine, valine, threonine) uptake fluxes in SLC38A2-deficient (sgSLC38A2 #1, #3) and control (sgTom) HY19636, MiaPaCa2, and PANC1 cells cultured in DMEM for 24 hours. Error bars depict s.d. of three independent experiments. […] Data presented as a percent change for each amino acid relative to that measured in DMEM conditions. […]
For ^13C- and ^15N-labeled alanine tracing experiments, cells were plated into 6-well plates at 250,000 cells/well and allowed to attach overnight. […] Fatty acid labeling from ^13C3-alanine was measured by transferring 400 μL of the inorganic layer to a glass vial and evaporating under nitrogen flow in a needle evaporator prior to transesterification and GC-MS analysis. To quantify contribution to proteogenic amino acid pools, the insoluble interphase layer containing proteins was washed three times with HPLC-grade acetone and allowed to dry overnight with gentle nitrogen flow in a needle evaporator. […]

[2] = tested on: 8988T cells; test: Alanine uptake from culture media conditioned by 8988T cells; type: cell-based; settings: 10 μM, vs vehicle (DMSO), up to 96 hours
Procedure: (A) Alanine levels in culture media conditioned by 8988T cells treated with vehicle (DMSO) or fluvoxamine (FVX, 10 μM) over time. (B) Alanine uptake flux by 8988T cells treated with vehicle (DMSO) or fluvoxamine (FVX, 10 μM) for 96 hours. Data were normalized to cell growth over the treatment period. (C) Glutamine levels in culture media conditioned by 8988T cells treated with vehicle (DMSO) or fluvoxamine (FVX, 10 μM) over time. (D) Absolute values for amino acid uptake or secretion flux by 8988T cells treated with vehicle (DMSO) or fluvoxamine (FVX, 10 μM) for 96 hours. Data were normalized to cell growth over the treatment period.
Fluvoxamine (FVX), fluoxetine (FLX), paroxetine (PXT), sertindole (SND), and blonanserin (BNS) were acquired from Cayman Chemicals. Desipramine (DPM), α-(Methylamino) isobutyric acid (MeAIB), and L-alanine were acquired from Sigma. Stocks were prepared at 10 mM or 7.5 mM (BNS) in DMSO. Cells were treated with vehicle (DMSO) or varying concentrations of drug for indicated time. Conditioned media was collected and centrifuged at 1,000×g to remove cell debris followed by extraction of metabolites. For metabolite extraction, cells were first washed with ice cold 0.9% NaCl to remove media contamination followed by addition of 500 μL methanol (−20° C.) and 200 μL HPLC grade water (4° C.). […]

[3] = molecular target: T1, SLC38A2 (Homo sapiens, UniProt Q96QD8); test: SLC38A2 activity measured by MeAIB uptake in HY15549 dox-inducible SNAT2 cells; type: cell-based; settings: 20 μm compound, MeAIB 0.3 mM, 1 hour, vs vehicle (PBS), HY15549 cells expressing dox-inducible SLC38A2/SNAT2
T1 construct: expressed in transfected cells; host or cells: HY15549 cells with dox-inducible SNAT2
T1 sequence (Q96QD8 1-506): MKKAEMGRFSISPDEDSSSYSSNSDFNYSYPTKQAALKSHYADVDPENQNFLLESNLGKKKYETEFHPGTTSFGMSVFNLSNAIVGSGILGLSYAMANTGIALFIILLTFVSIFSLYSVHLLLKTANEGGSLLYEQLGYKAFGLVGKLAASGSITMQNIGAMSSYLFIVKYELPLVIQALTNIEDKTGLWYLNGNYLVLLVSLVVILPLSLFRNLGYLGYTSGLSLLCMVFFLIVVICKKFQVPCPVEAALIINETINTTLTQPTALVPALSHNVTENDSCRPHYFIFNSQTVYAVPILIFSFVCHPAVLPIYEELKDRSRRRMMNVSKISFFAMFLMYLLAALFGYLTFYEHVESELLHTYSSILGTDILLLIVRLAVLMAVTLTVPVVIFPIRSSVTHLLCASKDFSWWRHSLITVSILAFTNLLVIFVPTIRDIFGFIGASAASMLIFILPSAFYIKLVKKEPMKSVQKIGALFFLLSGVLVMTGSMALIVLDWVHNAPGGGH
Procedure: (A) Schematic depicting SLC38A2-dependent update of alanine structural analog, methyl α-aminoisobutyrate (MeAIB). […] (B) Total ion chromatogram (TIC) of HY15549 dox-inducible SNAT2 cells treated with 1 mM MeAIB for 24 hours compared to vehicle (PBS). […] HY15549 dox-inducible SNAT2 cells were cultured with a concentration gradient of MeAIB for 15 minutes (gray circles) or 60 minutes (black squares). (D) Western blot depicting SLC38A2 expression relative to doxycycline after 24 hours culture in HY15549 dox-inducible SNAT2 cells. (E) Intracellular MeAIB levels in HY15549 dox-inducible cells cultured with dox (+SNAT2, left bar) and without dox (KO, right bar) for 24 hours with 1 mM MeAIB. (F) Intracellular MeAIB levels in HY15549 dox-inducible cells cultured with vehicle, paroxetine (PXT, 20 μM), or sertraline (SRT, 20 μm) for 24 hours with 300 μM MeAIB.

| SMILES | rescue of amino acid defect (change in intracellular amino acids relative to DMEM) [1] | alanine uptake in PDAC cells [2] | inhibition of MeAIB uptake (intracellular MeAIB levels) [3] |
| --- | --- | --- | --- |
| C[C@H](N)C(=O)OC(C)(C)C [L-alanine tert-butyl ester] | failed to rescue amino acid defect |  |  |
| C[C@H](N)C(=O)O [L-alanine] | failed to rescue amino acid defect |  |  |
| COCCCC/C(=N\OCCN)c1ccc(C(F)(F)F)cc1 [fluvoxamine] |  | significantly and specifically inhibits alanine uptake | inhibited |
